In US20120196899A1, “METHODS AND PRODUCTS FOR TREATING INFLAMMATION” (Rock Creek Pharmaceuticals, Inc., priority 2010, published 2012):
“And” between values parts separate entries of the source, which are not always exact repeats. Equal entries are not always repeated. Where two headings read alike, the source gives them in different places.

Assay: Concentration in brain extracts after single i.v. bolus
Assay type: in vivo, Sprague-Dawley rats
Settings: for concentration at 0.5 h / concentration at 24 h / concentration at 6 h: Sprague-Dawley, rat, brain, intravenous
Protocol: Six rats (3 males and 3 females) were dosed per dose group. […] Plasma and brain homogenates were stored at −80° C. until analysis.
An additional 48 rats (24 males and 24 females) received a single intravenous dose via the tail vein at the same doses as mentioned above. At 30 and 360 minutes post administration, 6 rats (3 males and 3 females) per dose group, per time point were euthanized, bled via cardiac puncture, and perfused, and brains were collected. The brains were homogenized. Blood was spun, and plasma was collected. Plasma and brain homogenate were stored at −80° C.
The animals were weighed prior to dosing and received a single i.v. dose of either test compound at a volume of 5 mL/kg. Blood was collected via the venus plexus (retro-orbital) into tubes containing (K2) EDTA. No more than 0.5 mL was collected per time point. […] The brain was removed, weighed, homogenized in sterile 0.9% saline at a volume equal to its weight, and stored at −80° C.
Sample preparation. […] The amount of the test agent in the supernatant was determined by liquid chromatography tandem mass spectrometry (LC/MS/MS).
Analysis. Samples were analyzed by LC/MS/MS using an Agilent 6410 mass spectrometer coupled with an Agilent 1200 high pressure liquid chromatography (HPLC) and a CTC PAL chilled autosampler, all controlled by MassHunter software (Agilent). After separation on a hydrophilic interaction liquid chromatography (HILIC) HPLC column (Sepax) using an acetonitrile-ammonium acetate/acetic acid gradient system, peaks were analyzed by mass spectrometry (MS) using ESI ionization in multiple reaction monitoring (MRM) mode. MassHunter software was used to calculate the concentration of the test compounds in samples from the peak area using the appropriate calibration curves.
Calibration samples. Calibration curves were determined for both rat plasma and brain homogenate. Calibration samples were prepared by diluting a 50× stock solution of the test compound in PBS with blank matrix to the appropriate concentration and these samples were prepared as described above in the sample preparation.

In the case of C1=CCC(c2cccnc2)NC1 (racemic) [Anatabine, 1,2,3,6-tetrahydro-[2,3′]bipyridinyl], the “Concentration of anatabine in rat brain extract” value (from here on “Concentration of anatabine”) (Anatabine 0.1 mg/kg, Rat Brain, 0.5 hr, individual rats) is reported as “<LLQ and 21 ng/mL and 34 ng/mL and 25 ng/mL and 30 ng/mL”, the “Concentration of anatabine” value (Anatabine 0.1 mg/kg, Rat Brain, 6 hr, individual rats) is reported as 3 ng/mL and <LLQ (2×) and 5 ng/mL and 4 ng/mL and 2 ng/mL and the “Concentration of anatabine” value (Anatabine 0.1 mg/kg, Rat Brain, 24 hr, individual rats) is reported as “<LLQ (4×) and 2 ng/mL”. The “Concentration of anatabine” value (Anatabine 0.75 mg/kg, Rat Brain, 0.5 hr, individual rats) was 317 ng/mL and 393 ng/mL, the “Concentration of anatabine” value (Anatabine 0.75 mg/kg, Rat Brain, 6 hr, individual rats) was 28 ng/mL and 19 ng/mL and 17 ng/mL and 27 ng/mL and 20 ng/mL and the “Concentration of anatabine” value (Anatabine 0.75 mg/kg, Rat Brain, 24 hr, individual rats) was “<LLQ”. For the same compound, the “Avg. Conc. rat brain” value (Anatabine 0.75 mg/kg, female, 24 hr) was “<LLQ”, the “Avg. Conc. rat brain, combined male and female” value (Anatabine 0.75 mg/kg, male and female, 24 hr) was “<LLQ” and the “Avg. Conc. rat brain” value (Anatabine 0.75 mg/kg, male, 24 hr) was “<LLQ”. The “Concentration of anatabine” value (Anatabine 1.0 mg/kg, Rat Brain, 0.5 hr, individual rats) was 338 ng/mL and 362 ng/mL and 393 ng/mL, the “Concentration of anatabine” value (Anatabine 1.0 mg/kg, Rat Brain, 6 hr, individual rats) was 3 ng/mL and 4 ng/mL (2×) and 8 ng/mL (2×) and <LLQ and the “Concentration of anatabine” value (Anatabine 1.0 mg/kg, Rat Brain, 24 hr, individual rats) was 2 ng/mL and <LLQ (4×). For the same compound, the “Avg. Conc. rat brain” value (Anatabine 1.0 mg/kg, female, 24 hr) was “<LLQ”, the concentration at 0.5 h (0.1 mg/kg, Concentration of anatabine in rat brain extract, Anatabine 0.1 mg/kg, Rat Brain, 0.5 hr, individual rats) was 19 ng/mL and the concentration at 24 h (0.1 mg/kg, Concentration of anatabine in rat brain extract, Anatabine 0.1 mg/kg, Rat Brain, 24 hr, individual rats) was 3 ng/mL. The concentration at 24 h (1 mg/kg, Concentration of anatabine in rat brain extract, Anatabine 1.0 mg/kg, Rat Brain, 24 hr, individual rats) was 3 ng/mL, the “Mean concentration in rat brain extracts” value (anatabine 0.75 mg/kg i.v., 24 hr, Female) was “<LLQ” and the “Mean concentration in rat brain extracts” value (anatabine 0.75 mg/kg i.v., 24 hr, Male) was “<LLQ”. The “Mean concentration in rat brain extracts” value (anatabine 1.0 mg/kg i.v., 24 hr, Female) was “<LLQ”, the concentration at 0.5 h (both sexes, 0.1 mg/kg, Anatabine 0.1 mg/kg, male and female, 0.5 hr, read-out: Avg. Conc. rat brain, combined male and female) was 25.8 ng/g and the concentration at 6 h (both sexes, 0.1 mg/kg, Anatabine 0.1 mg/kg, male and female, 6 hr, read-out: Avg. Conc. rat brain, combined male and female) was 3.5 ng/g. For the same compound, the concentration at 24 h (both sexes, 0.1 mg/kg, Anatabine 0.1 mg/kg, male and female, 24 hr, read-out: Avg. Conc. rat brain, combined male and female) was 2.5 ng/g, the concentration at 0.5 h (both sexes, 0.75 mg/kg, Anatabine 0.75 mg/kg, male and female, 0.5 hr, read-out: Avg. Conc. rat brain, combined male and female) was 295 ng/g and the concentration at 6 h (both sexes, 0.75 mg/kg, Anatabine 0.75 mg/kg, male and female, 6 hr, read-out: Avg. Conc. rat brain, combined male and female) was 21.2 ng/g. The concentration at 6 h (both sexes, 0.75 mg/kg, Concentration of anatabine in rat brain extract, Anatabine 0.75 mg/kg, Rat Brain, 6 hr, individual rats) was 16 ng/mL, the concentration at 0.5 h (both sexes, 1 mg/kg, Anatabine 1.0 mg/kg, male and female, 0.5 hr, read-out: Avg. Conc. rat brain, combined male and female) was 334 ng/g and the concentration at 6 h (both sexes, 1 mg/kg, Anatabine 1.0 mg/kg, male and female, 6 hr, read-out: Avg. Conc. rat brain, combined male and female) was 5.4 ng/g. For the same compound, the concentration at 24 h (both sexes, 1 mg/kg, Anatabine 1.0 mg/kg, male and female, 24 hr, read-out: Avg. Conc. rat brain, combined male and female) was 2.5 ng/g, the concentration at 0.5 h (both sexes, 1 mg/kg, Concentration of anatabine in rat brain extract, Anatabine 1.0 mg/kg, Rat Brain, 0.5 hr, individual rats) was 349 ng/mL and the concentration at 0.5 h (female, 0.1 mg/kg, Anatabine 0.1 mg/kg, female, 0.5 hr, read-out: Avg. Conc. rat brain) was 29.7 ng/g. The concentration at 6 h (female, 0.1 mg/kg, Anatabine 0.1 mg/kg, female, 6 hr, read-out: Avg. Conc. rat brain) was 3.7 ng/g, the concentration at 24 h (female, 0.1 mg/kg, Anatabine 0.1 mg/kg, female, 24 hr, read-out: Avg. Conc. rat brain) was 2 ng/g and the concentration at 0.5 h (female, 0.1 mg/kg, anatabine 0.1 mg/kg i.v., 0.5 hr, Female, read-out: Mean concentration in rat brain extracts) was 29.7 ± 4.5 ng/g. For the same compound, the concentration at 6 h (female, 0.1 mg/kg, anatabine 0.1 mg/kg i.v., 6 hr, Female, read-out: Mean concentration in rat brain extracts) was 3.7 ± 1.5 ng/g, the concentration at 24 h (female, 0.1 mg/kg, anatabine 0.1 mg/kg i.v., 24 hr, Female, read-out: Mean concentration in rat brain extracts) was 2 ng/g and the concentration at 0.5 h (female, 0.75 mg/kg, Anatabine 0.75 mg/kg, female, 0.5 hr, read-out: Avg. Conc. rat brain) was 315 ng/g. It also gave a concentration at 6 h (female, 0.75 mg/kg, Anatabine 0.75 mg/kg, female, 6 hr, read-out: Avg. Conc. rat brain) of 21 ng/g, a concentration at 0.5 h (female, 0.75 mg/kg, anatabine 0.75 mg/kg i.v., 0.5 hr, Female, read-out: Mean concentration in rat brain extracts) of 315 ± 67.9 ng/g and a concentration at 6 h (female, 0.75 mg/kg, anatabine 0.75 mg/kg i.v., 6 hr, Female, read-out: Mean concentration in rat brain extracts) of 21 ± 6.2 ng/g. The concentration at 0.5 h (female, 1 mg/kg, Anatabine 1.0 mg/kg, female, 0.5 hr, read-out: Avg. Conc. rat brain) was 346 ng/g, the concentration at 6 h (female, 1 mg/kg, Anatabine 1.0 mg/kg, female, 6 hr, read-out: Avg. Conc. rat brain) was 6 ng/g and the concentration at 0.5 h (female, 1 mg/kg, anatabine 1.0 mg/kg i.v., 0.5 hr, Female, read-out: Mean concentration in rat brain extracts) was 346 ± 56.7 ng/g. For the same compound, the concentration at 6 h (female, 1 mg/kg, anatabine 1.0 mg/kg i.v., 6 hr, Female, read-out: Mean concentration in rat brain extracts) was 6 ± 2.8 ng/g, the concentration at 0.5 h (male, 0.1 mg/kg, Anatabine 0.1 mg/kg, male, 0.5 hr, read-out: Avg. Conc. rat brain) was 20 ng/g and the concentration at 6 h (male, 0.1 mg/kg, Anatabine 0.1 mg/kg, male, 6 hr, read-out: Avg. Conc. rat brain) was 3 ng/g. The concentration at 24 h (male, 0.1 mg/kg, Anatabine 0.1 mg/kg, male, 24 hr, read-out: Avg. Conc. rat brain) was 3 ng/g, the concentration at 0.5 h (male, 0.1 mg/kg, anatabine 0.1 mg/kg i.v., 0.5 hr, Male, read-out: Mean concentration in rat brain extracts) was 20 ± 1.4 ng/g and the concentration at 6 h (male, 0.1 mg/kg, anatabine 0.1 mg/kg i.v., 6 hr, Male, read-out: Mean concentration in rat brain extracts) was 3 ng/g. It also gave a concentration at 24 h (male, 0.1 mg/kg, anatabine 0.1 mg/kg i.v., 24 hr, Male, read-out: Mean concentration in rat brain extracts) of 3 ng/g, a concentration at 0.5 h (male, 0.75 mg/kg, Anatabine 0.75 mg/kg, male, 0.5 hr, read-out: Avg. Conc. rat brain) of 276 ng/g and a concentration at 6 h (male, 0.75 mg/kg, Anatabine 0.75 mg/kg, male, 6 hr, read-out: Avg. Conc. rat brain) of 21.3 ng/g. The concentration at 0.5 h (male, 0.75 mg/kg, anatabine 0.75 mg/kg i.v., 0.5 hr, Male, read-out: Mean concentration in rat brain extracts) was 276 ± 37 ng/g, the concentration at 0.5 h (male, 1 mg/kg, Anatabine 1.0 mg/kg, male, 0.5 hr, read-out: Avg. Conc. rat brain) was 323 ng/g and the concentration at 6 h (male, 1 mg/kg, Anatabine 1.0 mg/kg, male, 6 hr, read-out: Avg. Conc. rat brain) was 5 ng/g. The concentration at 24 h (male, 1 mg/kg, Anatabine 1.0 mg/kg, male, 24 hr, read-out: Avg. Conc. rat brain) was 2.5 ng/g, the concentration at 0.5 h (male, 1 mg/kg, anatabine 1.0 mg/kg i.v., 0.5 hr, Male, read-out: Mean concentration in rat brain extracts) was 323 ± 35.9 ng/g and the concentration at 6 h (male, 1 mg/kg, anatabine 1.0 mg/kg i.v., 6 hr, Male, read-out: Mean concentration in rat brain extracts) was 5 ± 2.6 ng/g. For the same compound, the concentration at 24 h (male, 1 mg/kg, anatabine 1.0 mg/kg i.v., 24 hr, Male, read-out: Mean concentration in rat brain extracts) was 2.5 ± 0.7 ng/g and the “appearance in brain tissue following i.v. administration” value (single i.v., rats) was “rapidly appear in brain tissue”.
